System: NDM-1 Kp
Experiment: LD90 NDM-1 Kp pneumonia murine model, survival
Format: in vivo, Balb/c mice
Details: colistin 20 or 1.25 mg/kg/day, days 4 and 5 PI
Excerpt: To establish the optimal CST route, timing, and dosage regimen against MDR NDM-1 Kp-induced pneumonia, Balb/c mice (n=10-20 mice/gp) were infected with an i.n. LD90 and treated at various times and doses as depicted in Table 1. Doses included i.n. and/or i.p. single rCST9, rCSTC or a combination of rCST9 and rCSTC. Mice that were infected with NDM-1 Kp but were not treated served as controls. rCST treatments by routes, doses, or as a combined therapy were studied to select an optimal regimen.
Evaluate optimal timing and dosage of rCST-9 and/or PEG-rCST9 administration post-infection. Balb/c mice (n=10-20 mice/gp) were intranasally (i.n.) infected with approximately 1.82×10^8 CFU/mouse of Kp 2146 (as established hereinabove) then treated i.n. or i.p. with rCST9, human recombinant cystatin C (rCSTC) or a combination of rCST9 and rCSTC as depicted in Table 1. Kp infected alone served as controls. […] Therefore, as a comparative control to rCST9, the inventors evaluated the effectiveness of rCSTC against pneumonia using the same doses of 50 and/or 500 pg/mouse.
The potential for rCST9/rCSTC treatment to extend the period before successful antibiotic intervention was initiated was determined. For these evaluations, suboptimal doses of colistin were used to determine the extent of protection afforded by rCSTs as well as to minimize side effects/toxicity caused by this antibiotic (n=10 mice/gp). Doses, timing, and route of colistin were chosen based on efficacy studies of colistin in a mouse model of severe, established MDR pneumonia or a very low dose of colistin then adjusted to suboptimal levels for this study. LD90 NDM-1 Kp-challenged mice were treated with the rCST9/rCSTC 3 d i.p. treatment and then given 2 doses of colistin at 20 mg/kg/day or 1.25 mg/kg/day on day 4 and 5 PI.
Mouse model of pneumonia and CST treatments. Eight-week old female Balb/c mice weighing between 21 and 24 grams (Jackson Laboratories) were housed in an Association for Assessment and Accreditation for Laboratory Animal Care (AAALAC)-approved housing facility and permitted to adjust to their environment for 7 d prior to procedures, receiving free access to food and water throughout the study. All procedures were approved by the University of Texas Medical Branch IACUC and performed humanely with minimal suffering. […] One hour PI, mice were administered an i.n. dose of rCST9/rCSTC (50 pg of each) and then, this group of mice was given an i.p. injection of rCST9/rCSTC (500 pg of each) 3 d PI. A parallel group of infected mice received only a single i.p. dose of rCST9/rCSTC, PEG-rCST9/rCSTC (500 pg of each), or PEG-rCST9 (500 pg) alone 3 d PI. NDM-1-Kp infected mice alone or uninfected mice served as controls. Survival was observed up to 15 days post treatment. Additional groups (n=4 mice/group) of infected and CST-treated mice were euthanized at selected time points (24 h, 72 h, 5 and/or 10 d PI) to harvest lungs. Additional groups were treated with i.n. rCSTs (50 pg of each) as described above but they were euthanized at 30 min, 1 h and 3 h to collect lungs for the quantification of lipid peroxidase by-product, known as malondialdehyde (MDA), as described below.
Additional groups of mice (n=15 mice/group) were treated with the optimal CST treatment regimens of an i.n. dose of rCST9/rCSTC (50 pg of each), followed by an i.p. injection of rCST9/rCSTC (500 pg of each) 3 d PI or the single i.p. dose of rCST9/rCSTC (500 pg of each). At 4 d PI, mice were given 2 separate i.p. injections of colistin (JHP Pharmaceuticals, LLC; colistimethate sodium; 20 mg/kg/mouse or 1.25 mg/kg/day) 8 h apart for 2 d.

For colistin [reference compound], the “survival protection compared to rCST monotherapy” value was “neither of the antibiotic doses surpassed protection afforded by the rCST monotherapy”.

— patent publication US12053511B2, “Cystatin C and Cystatin 9 to treat gut inflammation caused by thermal injury” (priority 2016, dated 2024)
